Assay results from patent US6358927B1, “Peptide fragments and analogs derived from PBAN 1-33 NH2 for controlling moths” (priority 1994, dated 2002).

Experiments:
Type in all cases: in vivo
[1] = tested on: Heliothis peltigera; assay: Inhibition of pheromonotropic activity evoked by PBAN (1-33) NH2 (co-injection of free acid fragments or antiserum); details: for inhibitory activity on pheromonotropic activity evoked by PBAN (1-33) NH2 (in words): injected together with 1 pmol PBAN (1-33) NH2
Experimental: (§1) Structure activity studies were performed by an examination of the pheromonotropic activity of synthetic Hez-PAN (PBAN 1-33 NH2) and ten shorter fragments derived from its N- and C-terminal regions. Activity was tested on Heliothis peltigera using a bioassay as described by Gazit et al; (Insect Biochem., 20, 853-858, 1990).

[2] = tested on: Heliothis peltigera; assay: Pheromonotropic bioassay: peptide injected into females, pheromone content (Z11-16:Ald) of the gland measured; details: for biological activity (in words): 10 pmol in the presence of protease inhibitors for 2 hours; for effect of protease inhibitors on the biological activity of the peptide (in words): mixture of carboxypeptidase inhibitors (aprotinin and PMSF) and other protease inhibitors (TLCK, bacitracin) (FIG. 3)
Experimental: as §1, with “1990). These structures are as follows:” for “1990).”
The role of the N-terminus on the onset of the biological activity was examined using a series of peptides lacking 8, 12, 16, and 18 amino acids from their N-terminus [PBAN (9-33) NH2, PBAN (13-33) NH2, PBAN (17-33) NH2 and PBAN (19-33) NH2], respectively. […] Pheromone content was examined two hours post-injection. […] The N-terminal region may provide stability against proteolytic degradation or alternatively may play a secondary structural role.
Pheromonotropic activity was determined by injecting the peptides, dissolved in buffer phosphate to 3.5-4.5 days old females during daylight for two hours. Pheromone content is represented by the amount of the major pheromone component Z11-16:Ald.

[3] = tested on: Spodoptera littoralis larvae; assay: Melanotropic bioassay: cuticular melanization in ligated larvae; details: for Non pigmented area / Pigmented area: 10 pmol injected, ligated larvae, computerized optical density scanner; for cuticular melanization (in words): injection into ligated larvae, compared with ligation or buffer injection
Experimental: Structure activity studies were also performed with respect to the melanotropic activity of synthetic Hez-PBAN. All the fragments that were tested for their pheromonotropic activity were also tested for their melanotropic activity. Studies were performed on Spodoptera littoralis larvae using a quantitative bioassay (Altstein et al., Peptides, submitted, 1994) which examines the ability of PBAN fragments to induce cuticular melanization in ligated larvae. Ligated larvae produce smaller amounts of melanin compared to untreated larvae (Table 4) as a result of a reduction in their endogenous PBAN. Under the tested conditions ligation caused a significant, but not complete, reduction in cuticular melanization. This incomplete reduction may result from the presence of PBAN in ganglia which were not affected by the ligation or from the presence of another hormone or neuropeptide that affects this process.
Pigmented and non-pigmented areas were determined by a computerized optical density scanner as described by Altstein et al., (Peptides, submitted, 1994).

[4] = tested on: Heliothis peltigera; assay: Pheromonotropic bioassay: peptide injected into females, pheromone content (Z11-16:Ald) of the gland measured; details: shortly after injection (15-30 min) (FIG. 5)
[5] = free acid fragment at 10 pmol injected together with PBAN (1-33) NH2 at 1 pmol
[6] = C-terminally free acid peptides, 10 pmol, in the presence of protease inhibitors for 2 hours
[7] = Dose of 1 pmol, injected in phosphate buffer to 3.5-4.5 days old females during daylight for two hours
[8] = Dose of 10 pmol, injected in phosphate buffer to 3.5-4.5 days old females during daylight for two hours
[9] = concentrations ranging from 1-100 pmol, tested 2 hours post injection (FIG. 4)
[10] = 1 pmol, pheromone content two hours post-injection

| Substance | Inhibition (% of cont) [1, 5] [%] | Pheromone content Z11-16:Ald ng/gland ± SE [1, 5] [ng/gland] | Pheromone content Z11-16:Ald ng/gland ± SE [2, 6] [ng/gland] | Pheromone content Z11-16:Ald ng/gland ± SE [2, 7] | Pheromone content Z11-16:Ald ng/gland ± SE [2, 8] | also measured |
| --- | --- | --- | --- | --- | --- | --- |
| H-Pro-Ala^10-Asp-Gln-Glu-Met-Tyr-Arg-Gln-Asp-Pro-Glu^20-Gln-Ile-Asp-Ser-Arg-Thr-Lys-Tyr-Phe-Ser^30-Pro-Arg-Leu^23-COOH (H-PADQEMYRQDPEQIDSRTKYFSPRL-OH) [PBAN (9-33) COOH] | 7 | 154.7 ± 22.2 | <1 | – | – | inhibitory activity on pheromonotropic activity evoked by PBAN (1-33) NH2 (in words) [1]: did not show any inhibitory activity; biological activity (in words) [2]: lack any biological activity |
| H-Pro-Ala^10-Asp-Gln-Glu-Met-Tyr-Arg-Gln-Asp^18-COOH (H-PADQEMYRQD-OH) [PBAN (9-18) COOH] | 35 | 108.1 ± 18.0 | <1 | – | – | Non pigmented area [3]: 25%; Pigmented area [3]: 75%; cuticular melanization (in words) [3]: significant decrease; inhibition of the pheromonotropic activity ([1]; 100 pmol of fragment together with 0.5 pmol PBAN (1-33) NH2 (FIG. 6)): 40%; biological activity (in words) [2]: lack any biological activity |
| H-Pro-Glu^20-Gln-Ile-Asp-Ser-Arg-Thr-Lys-Tyr-Phe-Ser^30-Pro-Arg-Leu^33-COOH [PBAN (19-33) COOH] | 27 | 120.4 ± 29.2 | <1 | – | – | inhibitory activity on pheromonotropic activity evoked by PBAN (1-33) NH2 (in words) [1]: did not show any inhibitory activity; biological activity (in words) [2]: lack any biological activity |
| H-Leu^1-Ser-Asp-Asp-Met-Pro-Ala-Thr-Pro-Ala^10-Asp-Gln-Glu-Met-Tyr-Arg-Gln-Asp-Pro-Glu^20-Gln-Ile-Asp-Ser-Arg-Thr-Lys-Tyr-Phe-Ser^30-Pro-Arg-Leu^33-COOH [PBAN (1-33) COOH] | 0 | 170.2 ± 24.2 | 1.4 ± 0.76 | – | – | inhibitory activity on pheromonotropic activity evoked by PBAN (1-33) NH2 (in words) [1]: did not show any inhibitory activity; pheromonotropic activity (in words) ([2]; 10 pmol): completely inactive; effect of protease inhibitors on the biological activity of the peptide (in words) [2]: did not enhance |
| H-Tyr-Phe-Ser^30-Pro-Arg-Leu^33-NH2 (H-YFSPRL-NH2) [PBAN (28-33) NH2] | – | – | – | 5.6 ± 1.7 d ng/gland | 12.7 ± 4.9 c′ ng/gland | pheromonotropic activity (in words) [2, 9]: active only at high doses (100 pmol); pheromonotropic activity (in words) [4]: does not differ significantly from that of the full length PBAN (1-33) NH2 |
| H-Gln-Asp-Pro-Glu^20-Gln-Ile-Asp-Ser-Arg-Thr-Lys-Tyr-Phe-Ser^30-Pro-Arg-Leu^33-NH2 [PBAN (17-33) NH2] | – | – | – | 24.1 ± 5.7 c ng/gland | 196.9 ± 40.7 a′ ng/gland | – |
| H-Leu^1-Ser-Asp-Asp-Met-Pro-Ala-Thr-Pro-Ala^10-Asp-Gln-Glu-Met-Tyr-Arg-Gln-Asp-Pro-Glu^20-Gln-Ile-Asp-Ser-Arg-Thr-Lys-Tyr-Phe-Ser^30-Pro-Arg-Leu^33-NH2 [PBAN (1-33) NH2, reference compound] | – | – | – | 200.7 ± 40.7 a ng/gland | 225.2 ± 51.4 a′ ng/gland | Non pigmented area [3]: 4%; Pigmented area [3]: 96%; cuticular melanization (in words) [3]: significant increase; Pheromone content Z11-16:Ald ng/gland ± SE ([1]; PBAN (1-33) NH2 alone at 1 pmol (control of Table 3)): 165.0 ± 21.0 ng/gland; effect of protease inhibitors on the biological activity of the peptide (in words) [2]: significant stimulation in its activity |
| H-Pro-Glu^20-Gln-Ile-Asp-Ser-Arg-Thr-Lys-Tyr-Phe-Ser^30-Pro-Arg-Leu^33-NH2 [PBAN (19-33) NH2] | – | – | – | 52.7 ± 21.0 b ng/gland | 133.8 ± 15.7 b′ ng/gland | pheromonotropic activity (in words) [2, 10]: low activity |
| H-Pro-Ala^10-Asp-Gln-Glu-Met-Tyr-Arg-Gln-Asp-Pro-Glu^20-Gln-Ile-Asp-Ser-Arg-Thr-Lys-Tyr-Phe-Ser^30-Pro-Arg-Leu^33-NH2 [PBAN (9-33) NH2] | – | – | – | 143.7 ± 29.6 a ng/gland | 168.0 ± 9.2 a′ ng/gland | pheromonotropic activity (in words) [2, 10]: active as PBAN (1-33) NH2 |
| H-Thr-Lys-Tyr-Phe-Ser^30-Pro-Arg-Leu^33-NH2 (H-TKYFSPRL-NH2) [PBAN (26-33) NH2] | – | – | – | 8.9 ± 3.5 d ng/gland | 12.2 ± 3.1 c′ ng/gland | pheromonotropic activity (in words) [2, 9]: active only at high doses (100 pmol) |
| H-Glu-Met-Tyr-Arg-Gln-Asp-Pro-Glu^20-Gln-Ile-Asp-Ser-Arg-Thr-Lys-Tyr-Phe-Ser^30-Pro-Arg-Leu^33-NH2 [PBAN (13-33) NH2] | – | – | – | 4.1 ± 3.0 d ng/gland | 180.2 ± 47.3 a′ ng/gland | – |
